# “And” between values parts separate entries of the source, which are not always exact repeats. Equal values may be shown once. Where a name gives a salt, the structure may show the parent alone.
# Tests used:
# Format in all cases: physicochemical, human
# [1] = GC/MS of blood plasma sample: time from blood collection to centrifugation (Table A); settings: for Rate of increase or decrease: detection intensity relative to 1 at 15 minutes; for Rate of increase or decrease / Increase or decrease: blood collection to centrifugation; for Increase or decrease: detection intensity
# Method: (§1) At room temperature, 5 mL of blood from a healthy subject was taken into a blood-collecting vessel containing EDTA, and the blood-collecting vessel was inverted for mixing, then cooled, and allowed to stand at 4° C. Here, in order to investigate how the detection intensity of molecules contained in the sample was affected in a case where the time to cooling was set to 5 minutes or more as compared to that in a case where the time to cooling was set to 1 minute or less, preparations were performed under both the former condition and the latter condition. After standing, the blood sample was subjected to centrifugation under a condition of 4° C., 3000 rpm, and 15 minutes. […] After centrifugation, the blood-collecting vessel was left to stand at room temperature for 30 minutes, and the blood plasma was isolated during this 30 minutes. The obtained blood plasma sample was frozen and stored. Here, in order to investigate how the detection intensity of molecules contained in the sample was affected in cases where freezing and thawing was performed 4 times, 6 times, and 10 times after freezing as compared to that in a case where freezing and thawing was performed 2 times after freezing, freezing and thawing was performed under the respective conditions of 2, 4, 6, and 10 times.
# (§2) Frozen blood plasma samples and serum samples were subjected to GC/MS or LC/MS. In GC/MS, the blood plasma samples and serum samples were subjected to methoxymation and trimethylsilylation and then introduced to GC-MS.
# (§3) GC/MS was conducted using GCMS·TQ8040 (Shimadzu Corporation) that was a GC·MS equipped with AOC·20i (Shimadzu Corporation) as an autosampler.
# (§4) Column: BPX5 (inner diameter of 0.25 mm, length of 30 m, and film thickness of 0.25 μm) (SGE)
# (§5) Column temperature: maintained at 60° C. for 2 minutes, then raised at 15° C./min, and maintained at 330° C. for 3 minutes.
# (§6) Inlet temperature: 250° C.
# (§7) Carrier gas control mode: constant linear velocity of 39.0 cm/sec
# (§8) Sample introduction method: split (split ratio of 30:1) Injection volume: 1 μL
# (§9) Ionization method: electron ionization
# (§10) Ionization current: 60 μA
# (§11) Interface temperature: 280° C.
# (§12) Ion source temperature: 200° C.
# (§13) Mode: multiple reaction monitoring (MRM)
# The rate of increase or decrease in Table A is the value of detection intensity relative to 1 that is the detection intensity in a case where the time from blood collection to centrifugation is set to 15 minutes.
# [2] = GC/MS of blood plasma sample: number of times of freezing and thawing (Table C); settings: for Rate of increase or decrease: detection intensity relative to 1 at 2 times; for Increase or decrease: detection intensity; for Rate of increase or decrease (second value, decrease) / Rate of increase or decrease (first value, increase): different from individual to individual, relative to 1 at 2 times; for Rate of increase or decrease (second value, decrease): individuals with decrease; for Rate of increase or decrease (first value, increase): individuals with increase
# Method: as §1, §2, §3, §4, §5, §6, §7, §8, §9, §10, §11, §12, §13
# The rate of increase or decrease in Table C is the value of detection intensity relative to 1 that is the detection intensity in a case where the number of times of freezing and thawing is set to 2 times.
# [3] = GC/MS of serum sample: time from blood collection to centrifugation (Table G); settings: blood collection to centrifugation; for Rate of increase or decrease: detection intensity relative to 1 at 15 minutes; for Increase or decrease: detection intensity
# In short: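 Blood was held for varying times before centrifugation (room temperature, 3500 rpm, 5 min); serum was frozen, then methoxymated and trimethylsilylated for GC/MS with electron ionization in MRM mode. Values are detection intensities relative to the 15-minute collection-to-centrifugation condition, set as 1.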
# [4] = GC/MS of serum sample: time from centrifugation to isolation (Table H); design: key to Rate of increase or decrease / Rate of increase or decrease (first value, increase): detection intensity relative to 1 at 30 min centrifugation-to-isolation; settings: for Rate of increase or decrease: detection intensity relative to 1 at 30 minutes; for Increase or decrease: detection intensity
# In short: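 Blood was centrifuged at room temperature, 3500 rpm, 5 min, and the vessel left at room temperature for 30 min, 1 h or 6 h before serum isolation. Serum was methoxymated, trimethylsilylated and analysed by GC/MS with electron ionization in MRM mode; intensities expressed relative to the 30-min condition (=1).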
# [5] = GC/MS of serum sample: number of times of freezing and thawing (Table I); design: key to Rate of increase or decrease / Rate of increase or decrease (first value, increase): detection intensity relative to 2 freeze-thaw cycles = 1; settings: for Rate of increase or decrease: detection intensity relative to 1 at 2 times; for Number of times when compound is affected: detection intensity changed by 30% or more vs 2 times of freezing and thawing
# In short: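 Serum was isolated after centrifugation at room temperature (3500 rpm, 5 min), frozen, and put through 2, 4, 6 or 10 freeze–thaw cycles. Samples were methoxymated and trimethylsilylated, then run by electron-ionization GC/MS in MRM mode on a BPX5 column (60 to 330 °C). Detection intensity is given relative to the 2-cycle sample, set as 1.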
# [6] = freezing and thawing 10 times vs 2 times
# [7] = freezing and thawing 4 times vs 2 times
# [8] = serum sample, GC/MS, detection intensity vs 2 times of freezing and thawing
# [9] = freezing and thawing 6 times vs 2 times
Compound,Rate of increase or decrease ([1]; after 4 hours),Increase or decrease ([1]; after 4 hours vs 15 minutes),Rate of increase or decrease ([4]; after 1 hour),Increase or decrease ([4]; after 1 hour vs 30 minutes),Rate of increase or decrease ([2]; freezing and thawing 4 times),"Increase or decrease [2, 7]",Increase or decrease ([3]; after 4 hours vs 15 minutes),"Increase or decrease [2, 9]",Rate of increase or decrease ([2]; freezing and thawing 6 times),also measured
"CCCCCCCCCCCCCCCCO [1-Hexadecanol (cetanol), 1-Hexadecanol]",0.60,Decrease,1.36,Increase,,,,,,"Rate of increase or decrease ([2]; freezing and thawing 10 times): 1.88; Increase or decrease [2, 6]: Increase; Rate of increase or decrease ([3]; after 12 hours): 1.38; Increase or decrease ([3]; after 12 hours vs 15 minutes): Increase; Increase or decrease ([5]; detection intensity, serum, GC/MS, freezing and thawing 10 times vs 2 times): Different from individual; Rate of increase or decrease (second value, decrease) ([5]; different from individual to individual, individuals with decrease, relative to 1 at 2 times, serum, GC/MS, freezing and thawing 10 times): 0.70; Rate of increase or decrease (first value, increase) ([5]; different from individual to individual, individuals with increase, relative to 1 at 2 times, serum, GC/MS, freezing and thawing 10 times): 1.34"
O=C1O[C@H]([C@@H](O)CO)C(O)=C1O [Ascorbic acid],1.77,Increase,,,1.41,Increase,Decrease,,,Rate of increase or decrease ([3]; after 4 hours): 0.62
OB(O)O [Boric acid],,,2.06,Increase,1.56,Increase,,,,"Rate of increase or decrease ([5]; serum, GC/MS, freezing and thawing 4 times): 0.63; Increase or decrease ([5]; detection intensity, serum, GC/MS, freezing and thawing 4 times vs 2 times): Decrease"
CCCCCC(=O)O [Cabroic acid],,,,,1.58,Increase,,,,"Number of times when compound is affected ([5]; serum sample, GC/MS): 10 times; Increase or decrease [5, 8]: Increase"
Nc1cc[nH]c(=O)n1 [Cytosine],1.50,Increase,,,,,,Different from individual,,"Rate of increase or decrease (second value, decrease) ([2]; freezing and thawing 6 times): 0.62; Rate of increase or decrease (first value, increase) ([2]; freezing and thawing 6 times): 1.93"
O=C[C@H](O)[C@@H](O)[C@@H](O)[C@H](O)C(=O)O [Galacturonic acid],,,1.87,Increase,1.44,Increase,,,,Rate of increase or decrease ([3]; after 8 hours): 0.60 and 0.64; Increase or decrease ([3]; after 8 hours vs 15 minutes): Decrease
O=S(=O)(O)Oc1c[nH]c2ccccc12 [Indoxyl sulfate],,,,,,,,Decrease,0.68,Rate of increase or decrease ([1]; after 12 hours): 1.50; Increase or decrease ([1]; after 12 hours vs 15 minutes): Increase
CCCCCCCCCCCCCCCCCC(=O)OCC(O)CO (stereo not drawn) [Monostearin],,,,,,,Increase,Decrease,0.67,"Rate of increase or decrease ([1]; after 12 hours): 1.35; Increase or decrease ([1]; after 12 hours vs 15 minutes): Increase; Rate of increase or decrease ([3]; after 4 hours): 1.98; Rate of increase or decrease ([4]; after 6 hours): 2.08; Increase or decrease ([4]; after 6 hours vs 30 minutes): Increase; Rate of increase or decrease ([5]; 10 times of freezing and thawing): 0.60; Number of times when compound is affected ([5]; serum sample, GC/MS): 10 times; Increase or decrease [5, 8]: Decrease"
CCCCCCCCCCCCCCCCCCO [Octadecanol],1.62,Increase,2.08,Increase,,,Increase,Different from individual,,"Rate of increase or decrease (second value, decrease) ([2]; freezing and thawing 6 times): 0.68; Rate of increase or decrease (first value, increase) ([2]; freezing and thawing 6 times): 1.63; Rate of increase or decrease ([5]; serum, GC/MS, freezing and thawing 6 times): 1.64; Increase or decrease ([5]; detection intensity, serum, GC/MS, freezing and thawing 6 times vs 2 times): Increase"
O=C(O)[C@H](O)[C@H](O)[C@H](O)CO [Ribonic acid],0.17,Decrease,,,1.62,Increase,,,,Rate of increase or decrease ([3]; after 12 hours): 1.46; Increase or decrease ([3]; after 12 hours vs 15 minutes): Increase
O[C@H]1[C@H](O)[C@@H](O)[C@H](O)[C@@H](O)[C@@H]1O [Scyllo-inositol],,,,,,,,Decrease,0.68,Rate of increase or decrease ([3]; after 8 hours): 0.66; Increase or decrease ([3]; after 8 hours vs 15 minutes): Decrease
NCCc1c[nH]c2ccccc12 [Tryptamine],,,,,,,,,,"Rate of increase or decrease ([2]; freezing and thawing 10 times): 0.69; Increase or decrease [2, 6]: Decrease"
O=C[C@H](O)[C@@H](O)[C@H](O)CO [Xylose],,Different from individual,,,,,Increase,Decrease,0.68,"Rate of increase or decrease (second value, decrease) ([1]; different from individual to individual, individuals with decrease, relative to 1 at 15 minutes, collection to centrifugation, after 4 hours): 0.69; Rate of increase or decrease (first value, increase) ([1]; different from individual to individual, individuals with increase, relative to 1 at 15 minutes, collection to centrifugation, after 4 hours): 1.68; Rate of increase or decrease ([3]; after 4 hours): 1.47; Rate of increase or decrease ([3]; after 8 hours): 0.68; Increase or decrease ([3]; after 8 hours vs 15 minutes): Decrease"
